Test results from patent US20210032374A1, “ISOLATED SAPOSHNIKOVIA DIVARICATA POLYSACCHARIDE AND USE THEREOF” (SHANGHAI GREEN VALLEY PHARMACEUTICAL CO., LTD., priority 2018, published 2021).

Assays:
Type in all cases: in vivo, Kunming mice
[1] = system: mice with diabetes mellitus induced by streptozotocin (STZ); assay: Fast blood glucose (FBG) in mice with STZ-induced diabetes mellitus; settings: 25 mg/kg oral gavage daily, STZ diabetic mice, x ± S.D, n = 10
Procedure: Experimental animals: healthy male Kunming mice of clean grade (weighed 18-22 g, provided by Shanghai SLAC Laboratory Animal Co., Ltd.). Experimental method: […] The diabetes mellitus model mice were randomly grouped into a model group (STZ 120 mg/kg), a low-dose Saposhnikovia divaricata polysaccharide group (SDP 50 mg/kg), a high-dose Saposhnikovia divaricata polysaccharide (SDP 200 mg/kg) group, and a positive drug (Glibenclamide, GLI 25 mg/kg) control group, 10 mice per group. For each dosing group, the mice were dosed by oral gavage at 0.2 ml/10 g body weight at 8:00 am every day. The normal control group and the model group were given an equal volume of distilled water. During the experiment, the mice in each group were allowed to access to water ad arbitrium. The FBG and body weight were measured every 10 days. 30 days after the dosing, the mice were treated, and the following indexes were measured.

[2] = system: mice with diabetes mellitus induced by streptozotocin (STZ); assay: Glucose tolerance (i.p. glucose load) in mice with STZ-induced diabetes mellitus; settings: 25 mg/kg, x ± S.D, n = 10
Procedure: Experimental method: The mice were kept at a temperature of 20±2° C. and a humidity of 50±5% under 12 hours of light and 12 hours of darkness for 3 days, during which the mice were allowed to access to food and water ad arbitrium. 10 healthy mice were selected as the normal control group (Control). The remaining mice were intraperitoneally injected with a streptozotocin (STZ) solution at 0.2 ml/10 g body weight. 72 h later, the fast blood glucose (FBG) of the mice was measured. The mice having an FBG value higher than 11.1 mmol/L and lower than 25 mmol/L were selected as diabetes mellitus model mice. The diabetes mellitus model mice were randomly grouped into a model group (STZ 120 mg/kg), a low-dose Saposhnikovia divaricata polysaccharide group (SDP 50 mg/kg), a high-dose Saposhnikovia divaricata polysaccharide (SDP 200 mg/kg) group, and a positive drug (Glibenclamide, GLI 25 mg/kg) control group, 10 mice per group. For each dosing group, the mice were dosed by oral gavage at 0.2 ml/10 g body weight at 8:00 am every day. The normal control group and the model group were given an equal volume of distilled water. During the experiment, the mice in each group were allowed to access to water ad arbitrium. The FBG and body weight were measured every 10 days. 30 days after the dosing, the mice were treated, and the following indexes were measured.
(1) Glucose tolerance: The mice were fasted at 8:00 the day before the end of the experiment. After 4 h, blood was collected from the orbit, and FBG was measured as the blood glucose level before administration of glucose (0 h). Then, all mice were intraperitoneally injected with a 10% glucose solution at 0.2 ml/10 g body weight. 0.5 hour (0.5 h) and 2 hours (2 h) after intraperitoneal injection of glucose, blood was collected from the orbit, and the blood glucose value was measured. The area under the blood glucose curve (AUC) was calculated according to the following equation: […]

[3] = system: mice with hyperlipoidemia; assay: Liver TC and TG contents and liver weight coefficient in mice with hyperlipoidemia; settings: positive drug 40 mg/kg
Source text: A hyperlipoidemia model was established with reference to the methods as described in the references (Liyan Sun, Zhenliang Liu, Jinxia Sun, et al., Effect of Imperata cylindrica polysaccharide on hypoxia tolerance in mice, China Journal of Hospital Pharmacy, 2008, 28(2): 96-99; Bin Leng, Intervention of immunoregulation and renal fibrosis by Imperata cylindrica polysaccharide in rats with IgA nephropathy, Dissertations of Guilin Medical University, 2013; Shijing Lv, Qicai Long, Deyuan He, et al., Regulation of lymphocyte proliferation and T cell subpopulation by Imperata cylindrica polysaccharide in patients with hepatitis B, [Conference Paper] 2001—The Second National Academic Conference on Immunology of Traditional Chinese Medicine). Experimental method: The mice were kept at a temperature of 20±2° C. and a humidity of 50±5% under 12 hours of light and 12 hours of darkness for 3 days, during which the mice were allowed to access to food and water ad arbitrium. […] The serum TC, TG, LDL-C and HDL-C levels were measured. A part of the liver tissue of the mice was took, homogenized, and measured for liver TC and TG contents, as well as SOD and GSH-px activities and MDA content. […]

Row | SMILES | FBG ([1]; Day 0) [mmol/L] | FBG ([1]; Day 10) [mmol/L] | FBG ([1]; Day 20) [mmol/L] | FBG ([1]; Day 30) [mmol/L] | Blood glucose ([2]; 0 h (before glucose), after 30 days dosing) [mmol/1] | Blood glucose ([2]; 0.5 h after i.p. glucose) [mmol/1] | Blood glucose ([2]; 2 h after i.p. glucose) [mmol/1] | Area under the curve (AUC) ([2]; blood glucose curve 0-2 h) | liver weight coefficient [3] | liver TC content ([3]; vs high-fat model group, P<0.01)
1 | COc1ccc(Cl)cc1C(=O)NCCc1ccc(S(=O)(=O)NC(=O)NC2CCCCC2)cc1 [GLI, glibenclamide] | 12.58 ± 2.69 | 15.95 ± 1.57 | 18.56 ± 3.02 | 20.44 ± 2.25 | 20.44 ± 2.25 | 29.63 ± 2.24 | 27.60 ± 2.04 | 40.62 ± 2.86 |  | 
2 | CC(C)OC(=O)C(C)(C)Oc1ccc(C(=O)c2ccc(Cl)cc2)cc1 [Lipanthyl, Fenofibrate] |  |  |  |  |  |  |  |  | significantly increased | significantly lower
